Reference: ChEMBL document CHEMBL1201862, “PubChem BioAssay data set” (2004)
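Values below derive from 48-hour exposures of cells grown in 96-well plates, with endpoints linearly interpolated between the two concentrations bracketing the appropriate inhibition level. GI50: concentration for 50% inhibition of growth.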 Active and inactive are the calls of the source. Rule as the data show it: active = GI50 up to about 1.1 µM and inactive = higher.

Legend:
Assay in all cases: NCI-60 cell line screen, 48 h
EKVX = system: EKVX
HOP-62 = system: HOP-62
OVCAR-5 = system: OVCAR-5
SR = system: SR
HCT-116 = system: HCT-116
SN12C = system: SN12C
SNB-19 = system: SNB-19
UACC-257 = system: UACC-257
HL-60 = system: HL-60
M14 = system: M14
786-0 = system: 786-0
U-251 = system: U-251
K562 = system: K562
CCRF-CEM = system: CCRF-CEM
CAKI-1 = system: CAKI-1
NCI-H23 = system: NCI-H23

Measured: GI50

CCOC(=O)c1c(NNc2ccccc2)nc2ccccc2c1-c1ccccc1
inactive: EKVX 50.2 µM | HOP-62 23.8 µM | OVCAR-5 56.1 µM | SR 21.4 µM | HCT-116 21.8 µM | SN12C 30.6 µM | SNB-19 41.8 µM | UACC-257 29.7 µM | HL-60 15.8 µM | M14 27.3 µM | 786-0 31.7 µM | U-251 34.4 µM | K562 22.5 µM | CCRF-CEM 10.9 µM | CAKI-1 37.1 µM | NCI-H23 19.5 µM

FC(F)(F)C12C34C=CC5(CCC6(C=CC1(CC3)O6)C52C(F)(F)F)O4 (stereo not drawn)
inactive: EKVX > 100 µM | HOP-62 > 100 µM | OVCAR-5 > 100 µM | SR > 100 µM | HCT-116 > 100 µM | SN12C > 100 µM | SNB-19 > 100 µM | UACC-257 > 100 µM | HL-60 > 100 µM | 786-0 > 100 µM | U-251 > 100 µM | K562 > 100 µM | CCRF-CEM > 100 µM | CAKI-1 > 100 µM | NCI-H23 > 100 µM

CC(=O)OC1C/C(C)=C/[C@H](O)CC(C)/C=C/[C@@]2(C)CCC(C(C)(C)O)C12 (stereo partly drawn)
inactive: EKVX > 100 µM | HOP-62 > 100 µM | OVCAR-5 > 100 µM | SR > 100 µM | HCT-116 > 100 µM | SN12C > 100 µM | SNB-19 > 100 µM | UACC-257 > 100 µM | HL-60 > 100 µM | M14 > 100 µM | 786-0 > 100 µM | U-251 > 100 µM | K562 > 100 µM | CCRF-CEM > 100 µM | CAKI-1 > 100 µM | NCI-H23 > 100 µM

Nc1ccc(-c2cc(C(=O)Nc3nccs3)nc(S)n2)cc1
inactive: EKVX > 100 µM | OVCAR-5 > 100 µM | HCT-116 > 100 µM | SN12C > 100 µM | SNB-19 > 100 µM | UACC-257 > 100 µM | M14 > 100 µM | 786-0 > 100 µM | U-251 > 100 µM | K562 > 100 µM | CCRF-CEM > 100 µM | CAKI-1 > 100 µM | NCI-H23 > 100 µM

CCNc1nnc(CSc2nc(-c3ccccc3)c(-c3ccccc3)[nH]2)s1
inactive: EKVX 14.3 µM | HOP-62 19.9 µM | OVCAR-5 21.4 µM | SR 31 µM | HCT-116 22 µM | SN12C 20.8 µM | SNB-19 16.7 µM | UACC-257 17.3 µM | HL-60 15.5 µM | M14 17.5 µM | 786-0 24.4 µM | U-251 13.7 µM | CCRF-CEM 18.3 µM | NCI-H23 26.1 µM

O=C1CC(c2c(-c3ccccc3)[nH]c3ccccc23)C(=O)N1 (stereo not drawn)
inactive: EKVX > 100 µM | HOP-62 > 100 µM | OVCAR-5 > 100 µM | HCT-116 > 100 µM | UACC-257 > 100 µM | HL-60 > 100 µM | M14 > 100 µM | 786-0 > 100 µM | U-251 > 100 µM | K562 > 100 µM | CCRF-CEM > 100 µM | CAKI-1 71.9 µM | NCI-H23 > 100 µM

CCOc1ccccc1NC(=O)CCc1nnc2s/c(=C\CCc3ccccc3)c(=O)n12
inactive: HOP-62 > 100 µM | OVCAR-5 > 100 µM | SR > 100 µM | HCT-116 > 100 µM | SN12C > 100 µM | SNB-19 > 100 µM | UACC-257 > 100 µM | HL-60 > 100 µM | M14 > 100 µM | 786-0 > 100 µM | U-251 > 100 µM | K562 > 100 µM | CCRF-CEM > 100 µM | CAKI-1 > 100 µM | NCI-H23 > 100 µM

Cn1c(N)[n+](C(=O)OCc2ccccc2)c(=O)c2c1ncn2C(=O)OCc1ccccc1
inactive: EKVX 89.5 µM | HOP-62 27 µM | OVCAR-5 > 100 µM | HCT-116 52.2 µM | SN12C > 100 µM | SNB-19 30.8 µM | UACC-257 > 100 µM | HL-60 > 100 µM | M14 50.9 µM | 786-0 30.1 µM | U-251 9.82 µM | K562 > 100 µM | CCRF-CEM > 100 µM | CAKI-1 53 µM | NCI-H23 46.2 µM

Cc1c(/C=N/NS(=O)(=O)c2ccccc2)no[n+]1[O-]
inactive: EKVX > 100 µM | OVCAR-5 > 100 µM | SR > 100 µM | HCT-116 > 100 µM | SN12C > 100 µM | SNB-19 37.9 µM | HL-60 > 100 µM | M14 > 100 µM | 786-0 > 100 µM | U-251 > 100 µM | K562 > 100 µM | CCRF-CEM > 100 µM | CAKI-1 > 100 µM | NCI-H23 > 100 µM

CCc1cccc(CC)c1NC(=O)C1=CNC(C)=C(C(=O)Nc2c(CC)cccc2CC)C1c1ccc(O)c(OC)c1 (stereo not drawn)
inactive: EKVX 35.2 µM | HOP-62 33.3 µM | OVCAR-5 54.8 µM | SN12C 57.8 µM | SNB-19 54.1 µM | UACC-257 28.2 µM | HL-60 26.5 µM | M14 34.5 µM | 786-0 34.4 µM | U-251 12.4 µM | K562 31.4 µM | CCRF-CEM 21.5 µM | CAKI-1 39.8 µM | NCI-H23 36.6 µM

Cn1c(O)c(C(=O)NC2CCCCC2)c(=O)n(C)c1=S
inactive: HOP-62 4.85 µM | OVCAR-5 14.5 µM | SR 17.9 µM | SN12C 6.12 µM | SNB-19 7.11 µM | UACC-257 6.27 µM | M14 8.02 µM | 786-0 6.15 µM | U-251 4.51 µM | CCRF-CEM 5.83 µM | CAKI-1 5.89 µM | NCI-H23 4.4 µM

COc1cc2ccc3c4cc(OC)c(OCc5ccccc5)cc4cnc3c2cc1OC
inactive: EKVX > 100 µM | HOP-62 > 100 µM | OVCAR-5 > 100 µM | SN12C > 100 µM | UACC-257 > 100 µM | M14 > 100 µM | 786-0 > 100 µM | U-251 > 100 µM | K562 > 100 µM | CCRF-CEM > 100 µM | CAKI-1 > 100 µM | NCI-H23 > 100 µM

CN1C(=O)N(C)C(N2CCCC2)c2c1nc1ccccn1c2=O (stereo not drawn)
inactive: EKVX 43.3 µM | HOP-62 > 100 µM | SR 34.8 µM | HCT-116 60.4 µM | SN12C 54.3 µM | SNB-19 99.5 µM | UACC-257 50.7 µM | HL-60 36.8 µM | M14 68.9 µM | 786-0 97.9 µM | U-251 70.5 µM | K562 53.1 µM | CCRF-CEM 37.6 µM | NCI-H23 > 100 µM

CC(=O)OC[C@]1(C)CCCC2(C)C1CCC1C=C(C)[C@H]3CCC12C3 (stereo partly drawn)
inactive: HOP-62 50.9 µM | OVCAR-5 > 100 µM | SR > 100 µM | HCT-116 47.4 µM | SN12C 40.3 µM | SNB-19 > 100 µM | UACC-257 61.7 µM | HL-60 > 100 µM | M14 35.2 µM | 786-0 66.2 µM | U-251 39.7 µM | K562 > 100 µM | CCRF-CEM > 100 µM | CAKI-1 > 100 µM | NCI-H23 94.4 µM
